Results as given in the NIST ThermoML archive (doi:10.1016/j.tca.2008.02.023).
± gives the expanded uncertainty stated by the source.

Experiment: excess molar enthalpy (molar enthalpy of mixing); xn = mol fraction of the nth substance listed
Details: 101 kPa, Liquid, Calvet calorimetry

Work on [Bi] [bismuth] + [Cu] yielded an excess molar enthalpy (1073.2 K, x2 = 0.0427) of 0.194 ± 0.00215 kcal/mol, an excess molar enthalpy (1073.2 K, x2 = 0.0749) of 0.337 ± 0.00359 kcal/mol and an excess molar enthalpy (1073.2 K, x2 = 0.0819) of 0.358 ± 0.00382 kcal/mol. The excess molar enthalpy (1073.2 K, x2 = 0.1184) was 0.493 ± 0.00526 kcal/mol, the excess molar enthalpy (1073.2 K, x2 = 0.1417) was 0.584 ± 0.00598 kcal/mol and the excess molar enthalpy (1073.2 K, x2 = 0.1524) was 0.603 ± 0.00621 kcal/mol. For the same compound, the excess molar enthalpy (1073.2 K, x2 = 0.1852) was 0.697 ± 0.00717 kcal/mol, the excess molar enthalpy (1073.2 K, x2 = 0.2051) was 0.763 ± 0.00789 kcal/mol and the excess molar enthalpy (1073.2 K, x2 = 0.216) was 0.771 ± 0.00789 kcal/mol. The excess molar enthalpy (1073.2 K, x2 = 0.2446) was 0.834 ± 0.0086 kcal/mol, the excess molar enthalpy (1073.2 K, x2 = 0.2648) was 0.887 ± 0.00908 kcal/mol and the excess molar enthalpy (1073.2 K, x2 = 0.2722) was 0.891 ± 0.00908 kcal/mol. It also gave an excess molar enthalpy (1073.2 K, x2 = 0.2982) of 0.937 ± 0.00956 kcal/mol, an excess molar enthalpy (1073.2 K, x2 = 0.3165) of 0.973 ± 0.01 kcal/mol and an excess molar enthalpy (1073.2 K, x2 = 0.3228) of 0.974 ± 0.01 kcal/mol. The excess molar enthalpy (1073.2 K, x2 = 0.3461) was 1 ± 0.0103 kcal/mol, the excess molar enthalpy (1073.2 K, x2 = 0.3622) was 1.02 ± 0.0105 kcal/mol and the excess molar enthalpy (1073.2 K, x2 = 0.3683) was 1.02 ± 0.0105 kcal/mol. For the same compound, the excess molar enthalpy (1073.2 K, x2 = 0.3893) was 1.04 ± 0.0108 kcal/mol, the excess molar enthalpy (1073.2 K, x2 = 0.4032) was 1.04 ± 0.0105 kcal/mol and the excess molar enthalpy (1273.2 K, x2 = 0.1194) was 0.496 ± 0.00526 kcal/mol. It also gave an excess molar enthalpy (1273.2 K, x2 = 0.2184) of 0.84 ± 0.0086 kcal/mol, an excess molar enthalpy (1273.2 K, x2 = 0.2984) of 1.04 ± 0.0105 kcal/mol and an excess molar enthalpy (1273.2 K, x2 = 0.3648) of 1.15 ± 0.0117 kcal/mol. It also gave an excess molar enthalpy (1273.2 K, x2 = 0.4198) of 1.21 ± 0.0124 kcal/mol, an excess molar enthalpy (1273.2 K, x2 = 0.47) of 1.23 ± 0.0127 kcal/mol and an excess molar enthalpy (1273.2 K, x2 = 0.5122) of 1.24 ± 0.0127 kcal/mol. The excess molar enthalpy (1273.2 K, x2 = 0.5486) was 1.22 ± 0.0124 kcal/mol, the excess molar enthalpy (1273.2 K, x2 = 0.5801) was 1.2 ± 0.0122 kcal/mol and the excess molar enthalpy (1273.2 K, x2 = 0.6078) was 1.18 ± 0.012 kcal/mol. It also gave an excess molar enthalpy (1273.2 K, x2 = 0.632) of 1.16 ± 0.0117 kcal/mol, an excess molar enthalpy (1273.2 K, x2 = 0.6535) of 1.13 ± 0.0115 kcal/mol and an excess molar enthalpy (1273.2 K, x2 = 0.673) of 1.1 ± 0.0112 kcal/mol. The excess molar enthalpy (1273.2 K, x2 = 0.6904) was 1.07 ± 0.011 kcal/mol, the excess molar enthalpy (1273.2 K, x2 = 0.7077) was 1.04 ± 0.0105 kcal/mol and the excess molar enthalpy (1273.2 K, x2 = 0.724) was 1.01 ± 0.0103 kcal/mol. The excess molar enthalpy (1273.2 K, x2 = 0.7393) was 0.985 ± 0.01 kcal/mol, the excess molar enthalpy (1273.2 K, x2 = 0.7532) was 0.956 ± 0.0098 kcal/mol and the excess molar enthalpy (1273.2 K, x2 = 0.7659) was 0.924 ± 0.00956 kcal/mol. For the same compound, the excess molar enthalpy (1273.2 K, x2 = 0.7773) was 0.897 ± 0.00932 kcal/mol, the excess molar enthalpy (1273.2 K, x2 = 0.7884) was 0.874 ± 0.00908 kcal/mol and the excess molar enthalpy (1273.2 K, x2 = 0.7985) was 0.859 ± 0.00884 kcal/mol. For the same compound, the excess molar enthalpy (1273.2 K, x2 = 0.8078) was 0.828 ± 0.0086 kcal/mol, the excess molar enthalpy (1273.2 K, x2 = 0.8164) was 0.802 ± 0.00837 kcal/mol and the excess molar enthalpy (1273.2 K, x2 = 0.8244) was 0.777 ± 0.00789 kcal/mol.
